As a reminder, the IC50 is the concentration that inhibits the measured activity by half. A lower IC50 goes with higher potency.

In patent publication US9340577B2, “HLA binding motifs and peptides and their uses” (priority 1992, dated 2016) one finds IC50 data, which are given here for 13 compounds.

No end group written: not given here. Some results are limits rather than exact numbers.

Holding throughout (test): biochemical
The target of one assay is DRB3*0101 (Homo sapiens, UniProt P01903+P79483). The format is binding.
The target in another assay is DRB1*0301 (Homo sapiens, UniProt P01903+P01911, A100K/A102G/A103R/A169T/F55Y/I96L/K41T/L162R/M171V/P40S/Q125H/Q178H/Q39Y/R42S/S66N/T106N/T262R/W38E/Y61H). The format is binding.
DRB1*0301, sequence (P01903 26-254 limits assumed, other chains not shown): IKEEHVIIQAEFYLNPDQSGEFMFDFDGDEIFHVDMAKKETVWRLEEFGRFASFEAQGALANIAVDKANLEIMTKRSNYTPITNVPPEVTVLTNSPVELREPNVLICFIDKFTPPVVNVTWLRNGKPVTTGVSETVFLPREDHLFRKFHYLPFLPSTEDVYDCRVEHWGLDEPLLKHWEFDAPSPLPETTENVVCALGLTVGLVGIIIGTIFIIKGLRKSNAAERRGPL
The target in a further assay is DRB1*1201 (Homo sapiens, UniProt P01903+P01911, A100R/A169T/D57E/D86V/F55L/H45Y/K41T/L162R/M171V/P40S/Q125H/Q178H/Q39Y/Q99D/R42G/S66L/T262R/V114A/V67L/W38E/Y59H/Y61H/Y89S). The format is binding.
The target of a further assay is DRB1*1501 (Homo sapiens, UniProt P01903+P01911). The format is binding.
The target in the next assay is DRB4*0101 (Homo sapiens, UniProt P01903+P13762, G164S). The format is binding.
For a further assay, the target named is DRB1*0802 (Homo sapiens, UniProt P01903+P01911, A100R/A103L/A169T/F76Y/H45Y/I96F/K41T/L162R/M171V/P40S/Q125H/Q178H/Q39Y/Q99D/R218S/R42G/S66Y/V115G/W38E). The format is binding.
The target of a further assay is DRB1*0901 (Homo sapiens, UniProt P01903+P01911, A100R/A103E/D57H/D86V/F55Y/F60I/F76Y/I96F/K127E/L162R/M171V/P40D/Q125H/Q99R/R33Q/R42F/S133A/S66N/T210M/V115G/W38K/Y107V/Y59G/Y89S). The format is binding.
The target in the next assay is DRB1*1302 (Homo sapiens, UniProt P01903+P01911, A100E/A169T/K41T/L162R/M171V/P40S/Q125H/Q178H/Q39Y/Q99D/R42S/S66N/T262R/V115G/W38E/Y61H). The format is binding.
DRB1*1302, sequence (P01903 26-254 limits assumed, other chains not shown): as above
The target of another assay is DRB1*0405 (Homo sapiens, UniProt P01903+P01911, A100R/A169T/D86S/F76Y/I96L/K127E/L162R/M171V/N62H/P40V/Q125Y/R42H/S133A/S149N/S66Y/V115G/V209L/W38E). The format is binding.
For another assay, the target named is DRB5*0101 (Homo sapiens, UniProt P01903+Q30154). To be noted: Binding affinity DRB5 *0101.
The target in the next assay is DR1 (DRB1*0101) (Homo sapiens, UniProt P01903+P01911, A100R/D57E/F55L/F60I/F76Y/I96L/L162R/M171V/P40L/Q125E/R42F/V115G/Y59C). The format is binding.
The target in another assay is DRB1*1101 (Homo sapiens, UniProt P01903+P01911, A100R/A169T/A87E/I96F/K41T/L162R/M171V/P40S/Q125H/Q178H/Q39Y/Q99D/R42S/S66Y/T262R/V115G/W38E). To be noted: Binding affinity DRB1 *1101.
DRB1*1101, sequence (P01903 26-254 limits assumed, other chains not shown): as above
The target of the next assay is DR7 (DRB1*0701) (Homo sapiens, UniProt P01903+P01911, A100R/A102G/A103Q/D57E/D86V/E43K/F76Y/K127E/L162R/M171V/P40G/Q125H/Q99D/R33Q/R42Y/R54Q/S133A/S66F/T210M/V115G/Y107V/Y59L/Y89S). The format is binding.
For the next assay, the target named is DR4w4 (DRB1*0401) (Homo sapiens, UniProt P01903+P01911, A100K/A169T/F76Y/I96L/K127E/L162R/M171V/N62H/P40V/Q125Y/R42H/S133A/S149N/S66Y/V115G/V209L/W38E). The format is binding.

Turning to `CC(C)C[C@H](NC(=O)[C@@H](NC(=O)[C@H](CCC(N)=O)NC(=O)[C@H](Cc1c[nH]c2ccccc12)NC(=O)[C@@H]1CCCN1C(=O)[C@H](CCC(N)=O)NC(=O)[C@@H](N)CO)C(C)C)C(=O)N[C@H](C(=O)N[C@@H](C)C(=O)N[C@@H](CO)C(=O)N[C@@H](CCCNC(=N)N)C(=O)NCC(=O)N[C@@H](CCCNC(=N)N)C(=O)N[C@@H](C)C(=O)N[C@H](C(=O)O)C(C)C)C(C)C` [Peptide 68.0061], the IC50 is over 20 µM on DRB3*0101, over 20 µM against DRB1*0301 and 8780 nM on DRB1*1201.
With PCHTTKLLHRDSVDS [Peptide 1601.07], the IC50 against DRB3*0101 is over 20 µM; on DRB1*1501 it was over 20 µM; against DRB1*0301 it was 7.26 µM; on DRB4*0101, 0.672 µM; against DRB1*0802, 2.78 µM; at DRB1*0901, over 20 µM. For the same compound, the IC50 against DRB1*1302 was over 20 µM; against DRB1*0405 it was over 20 µM; at DRB5*0101 it was over 20 µM; against DR1 (DRB1*0101) it was over 20000 nM; on DRB1*1101, 2.96 µM; against DR7 (DRB1*0701), over 20 µM. The compound also registered an IC50 against DR4w4 (DRB1*0401) of over 20 µM.
NTTPIIHLKGDKNSL [Peptide 1601.37]: the IC50 was over 20 µM on DRB3*0101; 11.4 µM on DRB1*1501; 7.48 µM on DRB1*0301; 0.075 µM against DRB4*0101; 1.9 µM on DRB1*0802; over 20 µM at DRB1*0901. Also, the IC50 against DRB1*1302 is 5.44 µM; against DRB1*0405, over 20 µM; on DRB5*0101, over 20 µM; against DR1 (DRB1*0101), 860 nM; at DRB1*1101, over 20 µM; on DR7 (DRB1*0701) it was 18.8 µM. Also, the IC50 against DR4w4 (DRB1*0401) was 11.9 µM.
Consider `CC[C@H](C)[C@H](NC(=O)[C@@H]1CCCN1C(=O)[C@H](CC(N)=O)NC(=O)[C@@H](N)Cc1c[nH]c2ccccc12)C(=O)N[C@@H](CC(C)C)C(=O)N[C@@H](CC(C)C)C(=O)N[C@@H](Cc1c[nH]c2ccccc12)C(=O)N[C@@H](CCC(N)=O)C(=O)N1CCC[C@H]1C(=O)N[C@H](C(=O)N1CCC[C@H]1C(=O)N[C@H](C(=O)N[C@@H](Cc1c[nH]cn1)C(=O)N[C@H](C(=O)N[C@H](C(=O)O)C(C)C)[C@@H](C)O)C(C)C)[C@@H](C)CC` [Peptide 68.0035], for which the IC50 at DRB3*0101 is over 20 µM; at DRB1*0301 it was over 20 µM; at DRB1*1201 it was 5690 nM; on DRB1*0802 it was over 20 µM.
As to `CC[C@H](C)[C@H](NC(=O)[C@@H]1CCCN1C(=O)[C@@H](N)CC(N)=O)C(=O)N[C@@H](CC(C)C)C(=O)N[C@@H](CC(C)C)C(=O)N[C@@H](Cc1c[nH]c2ccccc12)C(=O)N[C@@H](CCC(N)=O)C(=O)N1CCC[C@H]1C(=O)N[C@H](C(=O)N1CCC[C@H]1C(=O)N[C@H](C(=O)N[C@@H](Cc1c[nH]cn1)C(=O)N[C@H](C(=O)N[C@H](C(=O)N1CCC[C@H]1C(=O)O)C(C)C)[C@@H](C)O)C(C)C)[C@@H](C)CC` [Peptide 68.0036], the IC50 on DRB3*0101 is over 20 µM; at DRB1*0301, over 20 µM; on DRB1*1201, 612 nM; on DRB5*0101 it was over 20 µM.
With `CC[C@H](C)[C@H](NC(=O)[C@H](Cc1c[nH]c2ccccc12)NC(=O)[C@@H](NC(=O)[C@@H](N)C(C)C)[C@@H](C)O)C(=O)NCC(=O)N[C@@H](C)C(=O)N[C@@H](C)C(=O)N1CCC[C@H]1C(=O)N[C@@H](CC(C)C)C(=O)N[C@H](C(=O)N[C@@H](CC(C)C)C(=O)N[C@@H](CO)C(=O)N[C@@H](CCCNC(=N)N)C(=O)N[C@H](C(=O)N[C@H](C(=O)O)C(C)C)[C@@H](C)CC)[C@@H](C)CC` [Peptide 68.0060], the IC50 is over 20 µM on DRB3*0101, over 20 µM against DRB1*0301 and 818 nM against DRB1*1201.
Regarding DSVDSVNCGVISAAA [Peptide 1601.24], the IC50 against DRB3*0101 was over 20 µM; against DRB1*1501 it was over 20 µM; against DRB1*0301, over 20 µM; on DRB4*0101, 8.71 µM; against DRB1*0802, over 20 µM; against DRB1*0901, 6.73 µM. The IC50 is 0.736 µM at DRB1*1302; 13.6 µM against DRB1*0405; over 20 µM on DRB5*0101; 916 nM against DR1 (DRB1*0101); over 20 µM at DRB1*1101; 2.14 µM against DR7 (DRB1*0701). This compound also gave an IC50 against DR4w4 (DRB1*0401) of 1.28 µM.
With `CC(C)C[C@H](NC(=O)[C@H](Cc1ccccc1)NC(=O)CNC(=O)[C@H](CC(C)C)NC(=O)[C@H](CO)NC(=O)[C@H](CC(C)C)NC(=O)[C@H](CO)NC(=O)[C@H](C)NC(=O)[C@H](C)NC(=O)[C@H](CCCNC(=N)N)NC(=O)[C@H](C)NC(=O)[C@H](CC(C)C)NC(=O)[C@H](CC(C)C)NC(=O)[C@H](CC(C)C)NC(=O)[C@@H]1CCCN1)C(=O)O` [Peptide 68.0021], the results for the IC50 on DRB3*0101, against DRB1*0301 and at DRB1*1201 were over 20 µM, over 20 µM and 1510 nM, respectively.
Regarding `CC[C@H](C)[C@H](NC(=O)[C@@H](NC(=O)[C@@H]1CCCN1C(=O)CN)C(C)C)C(=O)N1CCC[C@H]1C(=O)N[C@@H](CCC(N)=O)C(=O)N[C@@H](CC(=O)O)C(=O)N[C@@H](Cc1c[nH]c2ccccc12)C(=O)N[C@@H](CO)C(=O)N[C@H](C(=O)N[C@@H](CCC(=O)O)C(=O)N[C@@H](CS)C(=O)N[C@@H](CCSC)C(=O)N[C@H](C(=O)N[C@H](C(=O)O)[C@@H](C)O)[C@@H](C)O)[C@@H](C)O` [Peptide 68.0156], the 50% inhibitory concentration (IC50) is over 20 µM on DRB3*0101, over 20 µM against DRB1*0301 and over 20000 nM on DRB1*1201.
Consider LSQRLNVCQDKILEH [Peptide 1601.21], for which the IC50 was over 20 µM at DRB3*0101; over 20 µM on DRB1*1501; 0.21 µM against DRB1*0301; 5.03 µM on DRB4*0101; over 20 µM against DRB1*0802; over 20 µM against DRB1*0901. For the same compound, the IC50 is over 20 µM against DRB1*1302; 4.63 µM on DRB1*0405; over 20 µM at DRB5*0101; over 20000 nM on DR1 (DRB1*0101); over 20 µM at DRB1*1101; over 20 µM at DR7 (DRB1*0701). Besides, at DR4w4 (DRB1*0401), the IC50 was over 20 µM.
Consider EVFFQRLGIASGRAR [Peptide 68.0115], for which the IC50 against DRB3*0101 was over 20 µM; on DRB1*0301, over 20 µM; against DRB1*1201, 2940 nM.
As for `CC(C)C[C@H](NC(=O)[C@@H](NC(=O)CN)C(C)C)C(=O)N[C@H](C(=O)N[C@@H](Cc1c[nH]cn1)C(=O)N1CCC[C@H]1C(=O)N[C@@H](CCC(N)=O)C(=O)N[C@@H](Cc1c[nH]c2ccccc12)C(=O)N[C@H](C(=O)N[C@@H](CC(C)C)C(=O)N[C@H](C(=O)N[C@@H](C)C(=O)N[C@@H](C)C(=O)N[C@@H](Cc1c[nH]cn1)C(=O)N[C@@H](CS)C(=O)O)[C@@H](C)O)C(C)C)C(C)C` [Peptide 68.0063], the IC50 at DRB3*0101 was over 20 µM; at DRB1*0301, over 20 µM; against DRB1*1201, 7490 nM.
For the compound GVNHQHLPARRAEPQ [Peptide 1543.05], the IC50 is over 20 µM against DRB3*0101; over 20 µM against DRB1*1501; over 20 µM against DRB1*0301; 14.6 µM against DRB4*0101; over 20 µM on DRB1*0802; over 20 µM on DRB1*0901. In addition, the IC50 on DRB1*1302 was over 20 µM; against DRB1*0405, over 20 µM; at DRB5*0101, over 20 µM; against DR1 (DRB1*0101) it was 276 nM; on DRB1*1101 it was over 20 µM; at DR7 (DRB1*0701), 16.8 µM. Also, the IC50 at DR4w4 (DRB1*0401) is over 20 µM.
